# Laboratory results: patent US10112954B2, “Bicyclic heteroaryl derivatives having inhibitory activity for protein kinase” (HANMI PHARM. CO., LTD., priority 2010, dated 2018)
# pIC50: −log10 of the molar value. Like-named read-outs stand apart in the source and are kept apart here.
# Assays:
# Assay type in all cases: biochemical
# FGFR3 = target: T1, FGFR3 (Homo sapiens, UniProt P22607); assay: Inhibition of FGFR3 kinase (fluorescence polarization kinase assay); conditions: for pIC50: Table 2, class symbols, read-out: FGFR3 IC50
# T1 construct: purchased Upstate Company
# Description: (§1) Inhibition activities of kinases of the inventive compounds (test compounds) prepared in the Examples were assessed and represented as IC50 values.
# (§2) Kinases used in Test Examples 1 to 3 were purchased from Upstate Company.
# (§3) 100 mM HEPES (pH 7.4), 25 mM MgCl2, 10 mM MnCl2 and 250 μM Na3VO4 were mixed to prepare a kinase buffer. Each of kinases to be measured was diluted to a concentration of 25˜300 ng per one reaction according to its activity with the kinase buffer. Also, each of the test compounds was serially diluted to a concentration starting from 100 nM up to 0.1 nM with the kinase buffer. 10 μl of the serially diluted solution of each of the test compounds and 10 μl of the diluted kinase were added to each well of a 96-well microplate, and the plate was incubated at room temperature for 10 mins. 10 μl of a substrate and 10 μl of ATP were successively added thereto to initiate a kinase reaction, and the resulting mixture was incubated at room temperature for 1 hour. The ATP was used in a form of a solution diluted to a concentration determined according to a kinase's Km value with distilled water. 10˜100 ng/mL poly(Glu, Tyr) 4:1 (Sigma) was used as the substrate. 10 μl of 6 mM EDTA was added to each well and stirred for 5 mins to terminate the kinase reaction. For a measurement of phosphorylation degree, 50 μl of a solution containing anti-phosphotyrosine antibody and fluorescein-labeled phosphopeptide was added to the reaction mixture, followed by incubating for 30 mins. The FP (fluorescence polarization) value of each well was determined with a Victor™ D fluorescence meter (Perkin Elmer Lifesciences).
# (§4) IC50, the concentration at which 50% inhibition occurs, was evaluated based on the difference between the final concentration of the test cells and the initial concentration of the cells incubated in a well not-treated with the test compound which was regarded as 100%. IC50 values of the test compounds on the FGFR kinase were shown in Table 2, and those of the test compound obtained in Example 177 on various kinases, in Table 3.
# FGFR1 = target: T2, FGFR1 (Homo sapiens, UniProt P11362); assay: Inhibition of FGFR1 kinase (fluorescence polarization kinase assay); conditions: for pIC50: Table 2, class symbols, read-out: FGFR1 IC50
# T2 construct: purchased Upstate Company
# Description: as §1, §2, §3, §4
# PDGFRβ = target: T3, PDGFRβ (Homo sapiens, UniProt P09619); assay: Inhibition of PDGFRβ kinase; conditions: Table 3
# T3 construct: purchased Upstate Company
# Description: as §1, §2
# as §3, with “10 μl of 6 mM EDTA was added to each well and stirred for 5 mins to terminate the kinase reaction. For a measurement of phosphorylation degree, 50 μl of a solution containing anti-phosphotyrosine antibody and fluorescein-labeled phosphopeptide was added to the reaction mixture, followed by incubating for 30 mins.” left out, “Lifesciences). […]” for “Lifesciences).”
# Kit = target: T4, Kit (Homo sapiens, UniProt P10721); assay: Inhibition of Kit kinase; conditions: Table 3
# T4 construct: purchased Upstate Company
# Description: as §1, §2
# as §3, with “10 μl of 6 mM EDTA was added to each well and stirred for 5 mins to terminate the kinase reaction. For a measurement of phosphorylation degree, 50 μl of a solution containing anti-phosphotyrosine antibody and fluorescein-labeled phosphopeptide was added to the reaction mixture, followed by incubating for 30 mins.” left out, “Lifesciences). […]” for “Lifesciences).”
# Ret = target: T5, Ret (Homo sapiens, UniProt P07949); assay: Inhibition of Ret kinase; conditions: Table 3
# T5 construct: purchased Upstate Company
# Description: as §1, §2
# as §3, with “10 μl of 6 mM EDTA was added to each well and stirred for 5 mins to terminate the kinase reaction. For a measurement of phosphorylation degree, 50 μl of a solution containing anti-phosphotyrosine antibody and fluorescein-labeled phosphopeptide was added to the reaction mixture, followed by incubating for 30 mins.” left out, “Lifesciences). […]” for “Lifesciences).”
# Met = target: T6, Met (Homo sapiens, UniProt P08581); assay: Inhibition of Met kinase; conditions: Table 3
# T6 construct: purchased Upstate Company
# Description: as §1, §2
# as §3, with “10 μl of 6 mM EDTA was added to each well and stirred for 5 mins to terminate the kinase reaction. For a measurement of phosphorylation degree, 50 μl of a solution containing anti-phosphotyrosine antibody and fluorescein-labeled phosphopeptide was added to the reaction mixture, followed by incubating for 30 mins.” left out, “Lifesciences). […]” for “Lifesciences).”
# PDGFRα = target: T7, PDGFRα (Homo sapiens, UniProt P16234); assay: Inhibition of PDGFRα kinase; conditions: Table 3
# T7 construct: purchased Upstate Company
# Description: as §1, §2
# as §3, with “10 μl of 6 mM EDTA was added to each well and stirred for 5 mins to terminate the kinase reaction. For a measurement of phosphorylation degree, 50 μl of a solution containing anti-phosphotyrosine antibody and fluorescein-labeled phosphopeptide was added to the reaction mixture, followed by incubating for 30 mins.” left out, “Lifesciences). […]” for “Lifesciences).”
# KDR = target: T8, KDR (Homo sapiens, UniProt P35968); assay: Inhibition of KDR kinase; conditions: Table 3
# T8 construct: purchased Upstate Company
# Description: as §1, §2
# as §3, with “10 μl of 6 mM EDTA was added to each well and stirred for 5 mins to terminate the kinase reaction. For a measurement of phosphorylation degree, 50 μl of a solution containing anti-phosphotyrosine antibody and fluorescein-labeled phosphopeptide was added to the reaction mixture, followed by incubating for 30 mins.” left out, “Lifesciences). […]” for “Lifesciences).”
# Flt1 = target: T9, Flt1 (Homo sapiens, UniProt P17948); assay: Inhibition of Flt1 kinase; conditions: Table 3
# T9 construct: purchased Upstate Company
# Description: as §1, §2
# as §3, with “10 μl of 6 mM EDTA was added to each well and stirred for 5 mins to terminate the kinase reaction. For a measurement of phosphorylation degree, 50 μl of a solution containing anti-phosphotyrosine antibody and fluorescein-labeled phosphopeptide was added to the reaction mixture, followed by incubating for 30 mins.” left out, “Lifesciences). […]” for “Lifesciences).”
# EGFR = target: T10, EGFR (Homo sapiens, UniProt P00533); assay: Inhibition of EGFR (Her1) kinase; conditions: Table 3
# T10 construct: purchased Upstate Company
# Description: as §1, §2
# as §3, with “10 μl of 6 mM EDTA was added to each well and stirred for 5 mins to terminate the kinase reaction. For a measurement of phosphorylation degree, 50 μl of a solution containing anti-phosphotyrosine antibody and fluorescein-labeled phosphopeptide was added to the reaction mixture, followed by incubating for 30 mins.” left out, “Lifesciences). […]” for “Lifesciences).”
# Flt3 = target: T11, Flt3 (Homo sapiens, UniProt P36888); assay: Inhibition of Flt3 kinase; conditions: Table 3
# T11 construct: purchased Upstate Company
# T11 sequence (P36888 27-993): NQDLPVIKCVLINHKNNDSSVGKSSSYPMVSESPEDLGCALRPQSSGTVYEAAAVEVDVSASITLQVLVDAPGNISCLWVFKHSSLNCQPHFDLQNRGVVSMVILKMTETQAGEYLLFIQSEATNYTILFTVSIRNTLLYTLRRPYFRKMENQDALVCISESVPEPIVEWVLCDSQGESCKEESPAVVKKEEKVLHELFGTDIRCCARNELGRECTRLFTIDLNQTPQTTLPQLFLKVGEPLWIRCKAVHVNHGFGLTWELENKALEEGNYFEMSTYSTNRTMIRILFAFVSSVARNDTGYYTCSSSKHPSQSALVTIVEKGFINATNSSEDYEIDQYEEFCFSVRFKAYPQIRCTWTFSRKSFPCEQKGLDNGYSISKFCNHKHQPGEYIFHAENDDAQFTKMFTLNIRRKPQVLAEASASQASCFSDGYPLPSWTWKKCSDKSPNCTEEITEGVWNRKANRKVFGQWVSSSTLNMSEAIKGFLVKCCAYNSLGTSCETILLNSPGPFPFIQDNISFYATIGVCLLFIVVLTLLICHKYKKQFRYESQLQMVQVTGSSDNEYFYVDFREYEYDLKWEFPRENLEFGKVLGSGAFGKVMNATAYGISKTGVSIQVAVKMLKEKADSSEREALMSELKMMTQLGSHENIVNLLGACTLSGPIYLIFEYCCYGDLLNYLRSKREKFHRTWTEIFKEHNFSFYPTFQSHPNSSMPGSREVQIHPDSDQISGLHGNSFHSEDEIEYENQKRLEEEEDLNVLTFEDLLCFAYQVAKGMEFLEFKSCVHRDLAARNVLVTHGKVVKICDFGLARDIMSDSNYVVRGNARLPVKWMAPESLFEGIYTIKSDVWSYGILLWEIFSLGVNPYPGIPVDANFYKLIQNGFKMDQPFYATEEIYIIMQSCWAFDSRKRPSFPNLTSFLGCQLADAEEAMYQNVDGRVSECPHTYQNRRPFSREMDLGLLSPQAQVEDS
# Description: as §1, §2
# as §3, with “10 μl of 6 mM EDTA was added to each well and stirred for 5 mins to terminate the kinase reaction. For a measurement of phosphorylation degree, 50 μl of a solution containing anti-phosphotyrosine antibody and fluorescein-labeled phosphopeptide was added to the reaction mixture, followed by incubating for 30 mins.” left out, “Lifesciences). […]” for “Lifesciences).”
# Tie2 = target: T12, Tie2 (Homo sapiens, UniProt Q02763); assay: Inhibition of Tie2 kinase; conditions: Table 3
# T12 construct: purchased Upstate Company
# Description: as §1, §2
# as §3, with “10 μl of 6 mM EDTA was added to each well and stirred for 5 mins to terminate the kinase reaction. For a measurement of phosphorylation degree, 50 μl of a solution containing anti-phosphotyrosine antibody and fluorescein-labeled phosphopeptide was added to the reaction mixture, followed by incubating for 30 mins.” left out, “Lifesciences). […]” for “Lifesciences).”
# Src = target: T13, Src (Homo sapiens, UniProt P12931); assay: Inhibition of Src kinase (Profluor Src kinase assay kit); conditions: Table 3
# T13 construct: purchased Upstate Company
# Description: as §1, §2
# (§5) An inhibition activity of Src kinase was determined with an Src kinase assay kit (Profluor™, Promega). Each of kinases to be measured was diluted to a concentration of 25 ng per one reaction with the kinase buffer provided in the kit. Also, each of the test compounds was serially diluted to a concentration starting from 100 μM up to 0.1 nM with 10% DMSO. 5 μl of the serially diluted solution of each of the test compounds and 20 μl of the diluted kinase were added to each well of a 96-well microplate, and the plate was incubated at room temperature for 10 mins. 25 μl of ATP was added thereto, followed by incubating for 1 hour, and a protease solution was added thereto, followed by incubating for 1 hour. 25 μl of a stabilizer solution was added to the resulting solution, followed by incubating in dark for 5 mins. The absorbance of each well was determined with a fluorescence reader (Molecular Devices) (excitation wavelength: 485 nm, emission wavelength: 530 nm). […]
# Fms = target: T14, Fms (Homo sapiens, UniProt P07333); assay: Inhibition of Fms kinase; conditions: Table 3
# T14 construct: purchased Upstate Company
# Description: as §1, §2
# as §3, with “10 μl of 6 mM EDTA was added to each well and stirred for 5 mins to terminate the kinase reaction. For a measurement of phosphorylation degree, 50 μl of a solution containing anti-phosphotyrosine antibody and fluorescein-labeled phosphopeptide was added to the reaction mixture, followed by incubating for 30 mins.” left out, “Lifesciences). […]” for “Lifesciences).”
# Lck = target: T15, Lck (Homo sapiens, UniProt P06239); assay: Inhibition of Lck kinase (Profluor kit procedure); conditions: Table 3
# T15 construct: purchased Upstate Company
# Description: as §1, §2, §5
# Her2 = target: T16, Her2 (Homo sapiens, UniProt P04626); assay: Inhibition of Her2 kinase; conditions: Table 3
# T16 construct: purchased Upstate Company
# Description: as §1, §2
# as §3, with “10 μl of 6 mM EDTA was added to each well and stirred for 5 mins to terminate the kinase reaction. For a measurement of phosphorylation degree, 50 μl of a solution containing anti-phosphotyrosine antibody and fluorescein-labeled phosphopeptide was added to the reaction mixture, followed by incubating for 30 mins.” left out, “Lifesciences). […]” for “Lifesciences).”
# Lyn = target: T17, Lyn (Homo sapiens, UniProt P07948); assay: Inhibition of Lyn kinase (Profluor kit procedure); conditions: Table 3
# T17 construct: purchased Upstate Company
# Description: as §1, §2, §5
# Fyn = target: T18, Fyn (Homo sapiens, UniProt P06241); assay: Inhibition of Fyn kinase (Profluor kit procedure); conditions: Table 3
# T18 construct: purchased Upstate Company
# Description: as §1, §2, §5
# T2 sequence (P11362 22-822, species assumed): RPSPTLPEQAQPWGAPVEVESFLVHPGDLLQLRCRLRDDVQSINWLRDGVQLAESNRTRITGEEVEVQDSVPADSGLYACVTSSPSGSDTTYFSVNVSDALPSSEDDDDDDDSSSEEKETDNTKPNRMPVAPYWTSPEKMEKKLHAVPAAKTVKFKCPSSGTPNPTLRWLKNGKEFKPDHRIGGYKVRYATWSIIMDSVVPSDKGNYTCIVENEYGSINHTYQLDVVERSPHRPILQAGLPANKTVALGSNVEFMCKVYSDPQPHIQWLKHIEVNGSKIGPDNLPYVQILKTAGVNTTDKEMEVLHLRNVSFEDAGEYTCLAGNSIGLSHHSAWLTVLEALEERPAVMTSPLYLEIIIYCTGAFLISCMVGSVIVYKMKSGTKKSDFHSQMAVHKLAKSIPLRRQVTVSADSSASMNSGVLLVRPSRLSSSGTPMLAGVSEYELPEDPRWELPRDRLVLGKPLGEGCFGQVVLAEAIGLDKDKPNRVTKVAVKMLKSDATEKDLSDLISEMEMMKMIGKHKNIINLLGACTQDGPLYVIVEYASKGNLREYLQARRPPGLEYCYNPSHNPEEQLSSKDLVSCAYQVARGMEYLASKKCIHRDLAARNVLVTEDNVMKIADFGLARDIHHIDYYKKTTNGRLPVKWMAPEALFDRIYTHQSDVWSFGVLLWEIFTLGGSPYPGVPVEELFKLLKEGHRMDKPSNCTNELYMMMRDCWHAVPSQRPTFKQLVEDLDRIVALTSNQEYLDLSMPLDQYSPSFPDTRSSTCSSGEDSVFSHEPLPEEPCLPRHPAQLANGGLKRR
# T1 sequence (P22607 23-806, species assumed): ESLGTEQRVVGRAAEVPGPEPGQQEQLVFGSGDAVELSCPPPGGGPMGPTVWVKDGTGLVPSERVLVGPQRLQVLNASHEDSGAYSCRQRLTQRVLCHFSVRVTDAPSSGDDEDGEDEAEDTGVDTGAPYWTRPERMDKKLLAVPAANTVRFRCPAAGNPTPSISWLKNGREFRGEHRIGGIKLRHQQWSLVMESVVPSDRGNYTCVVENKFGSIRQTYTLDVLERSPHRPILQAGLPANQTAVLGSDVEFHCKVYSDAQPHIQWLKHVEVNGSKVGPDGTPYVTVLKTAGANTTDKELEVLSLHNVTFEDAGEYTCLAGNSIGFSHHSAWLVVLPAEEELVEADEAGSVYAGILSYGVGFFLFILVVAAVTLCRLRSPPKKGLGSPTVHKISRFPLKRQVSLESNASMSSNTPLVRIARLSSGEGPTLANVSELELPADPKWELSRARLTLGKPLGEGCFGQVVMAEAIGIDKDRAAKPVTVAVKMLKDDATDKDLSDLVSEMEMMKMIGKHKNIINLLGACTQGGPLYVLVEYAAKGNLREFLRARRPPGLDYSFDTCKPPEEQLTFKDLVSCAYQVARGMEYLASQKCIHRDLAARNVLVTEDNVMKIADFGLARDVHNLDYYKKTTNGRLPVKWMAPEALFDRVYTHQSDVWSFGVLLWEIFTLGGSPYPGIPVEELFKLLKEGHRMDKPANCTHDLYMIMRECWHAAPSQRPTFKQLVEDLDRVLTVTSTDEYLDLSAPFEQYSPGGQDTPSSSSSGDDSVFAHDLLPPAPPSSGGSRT
# T6 sequence (P08581 25-1390): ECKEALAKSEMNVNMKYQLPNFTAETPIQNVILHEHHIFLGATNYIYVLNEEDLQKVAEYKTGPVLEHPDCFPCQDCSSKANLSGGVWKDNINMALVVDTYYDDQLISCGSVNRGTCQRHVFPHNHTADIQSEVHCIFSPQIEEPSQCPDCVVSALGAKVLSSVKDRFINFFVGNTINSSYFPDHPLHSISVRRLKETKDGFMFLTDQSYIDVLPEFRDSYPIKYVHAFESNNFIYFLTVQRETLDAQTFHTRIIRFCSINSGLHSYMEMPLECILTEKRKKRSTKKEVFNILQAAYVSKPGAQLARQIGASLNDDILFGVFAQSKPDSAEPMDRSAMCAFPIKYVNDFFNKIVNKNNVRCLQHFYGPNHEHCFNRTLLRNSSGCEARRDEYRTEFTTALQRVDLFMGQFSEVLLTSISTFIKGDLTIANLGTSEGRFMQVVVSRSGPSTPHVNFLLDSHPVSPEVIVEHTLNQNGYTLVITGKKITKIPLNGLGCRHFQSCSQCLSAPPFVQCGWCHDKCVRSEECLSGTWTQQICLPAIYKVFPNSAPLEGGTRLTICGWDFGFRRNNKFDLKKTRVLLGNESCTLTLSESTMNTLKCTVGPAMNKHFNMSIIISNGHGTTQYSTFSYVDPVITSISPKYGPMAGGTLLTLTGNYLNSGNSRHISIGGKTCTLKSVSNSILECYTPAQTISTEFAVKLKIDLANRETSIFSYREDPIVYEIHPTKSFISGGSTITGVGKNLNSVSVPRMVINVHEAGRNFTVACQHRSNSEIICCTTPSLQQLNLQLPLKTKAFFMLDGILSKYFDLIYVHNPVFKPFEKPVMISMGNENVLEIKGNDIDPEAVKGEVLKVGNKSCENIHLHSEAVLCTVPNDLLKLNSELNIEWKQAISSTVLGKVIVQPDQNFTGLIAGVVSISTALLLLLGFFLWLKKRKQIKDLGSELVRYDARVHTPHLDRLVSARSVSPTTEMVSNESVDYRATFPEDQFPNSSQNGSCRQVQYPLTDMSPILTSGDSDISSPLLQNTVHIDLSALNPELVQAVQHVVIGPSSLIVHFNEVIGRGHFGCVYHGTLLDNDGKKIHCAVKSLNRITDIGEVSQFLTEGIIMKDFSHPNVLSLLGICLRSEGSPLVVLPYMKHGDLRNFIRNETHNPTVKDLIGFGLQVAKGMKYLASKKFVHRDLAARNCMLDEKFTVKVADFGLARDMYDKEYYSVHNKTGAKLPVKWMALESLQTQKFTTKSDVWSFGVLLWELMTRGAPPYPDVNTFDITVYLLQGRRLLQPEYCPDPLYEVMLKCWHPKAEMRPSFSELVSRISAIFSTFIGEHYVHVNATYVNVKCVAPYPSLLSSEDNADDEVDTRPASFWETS
# T17 sequence (P07948 whole entry, species assumed): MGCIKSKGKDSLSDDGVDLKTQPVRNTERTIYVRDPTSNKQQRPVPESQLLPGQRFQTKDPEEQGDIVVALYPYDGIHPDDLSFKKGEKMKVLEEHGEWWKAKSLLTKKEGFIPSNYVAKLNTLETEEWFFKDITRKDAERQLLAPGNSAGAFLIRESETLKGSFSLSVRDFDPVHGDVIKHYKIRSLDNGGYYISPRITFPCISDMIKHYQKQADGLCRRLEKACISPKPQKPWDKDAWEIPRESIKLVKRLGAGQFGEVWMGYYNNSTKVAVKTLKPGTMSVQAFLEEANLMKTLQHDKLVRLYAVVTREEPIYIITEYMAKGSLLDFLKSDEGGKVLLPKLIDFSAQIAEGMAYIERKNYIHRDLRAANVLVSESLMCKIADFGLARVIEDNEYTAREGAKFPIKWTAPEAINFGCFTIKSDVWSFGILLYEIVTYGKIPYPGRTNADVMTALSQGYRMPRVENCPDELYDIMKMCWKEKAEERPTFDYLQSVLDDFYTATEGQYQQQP
# T4 sequence (P10721 26-976, species assumed): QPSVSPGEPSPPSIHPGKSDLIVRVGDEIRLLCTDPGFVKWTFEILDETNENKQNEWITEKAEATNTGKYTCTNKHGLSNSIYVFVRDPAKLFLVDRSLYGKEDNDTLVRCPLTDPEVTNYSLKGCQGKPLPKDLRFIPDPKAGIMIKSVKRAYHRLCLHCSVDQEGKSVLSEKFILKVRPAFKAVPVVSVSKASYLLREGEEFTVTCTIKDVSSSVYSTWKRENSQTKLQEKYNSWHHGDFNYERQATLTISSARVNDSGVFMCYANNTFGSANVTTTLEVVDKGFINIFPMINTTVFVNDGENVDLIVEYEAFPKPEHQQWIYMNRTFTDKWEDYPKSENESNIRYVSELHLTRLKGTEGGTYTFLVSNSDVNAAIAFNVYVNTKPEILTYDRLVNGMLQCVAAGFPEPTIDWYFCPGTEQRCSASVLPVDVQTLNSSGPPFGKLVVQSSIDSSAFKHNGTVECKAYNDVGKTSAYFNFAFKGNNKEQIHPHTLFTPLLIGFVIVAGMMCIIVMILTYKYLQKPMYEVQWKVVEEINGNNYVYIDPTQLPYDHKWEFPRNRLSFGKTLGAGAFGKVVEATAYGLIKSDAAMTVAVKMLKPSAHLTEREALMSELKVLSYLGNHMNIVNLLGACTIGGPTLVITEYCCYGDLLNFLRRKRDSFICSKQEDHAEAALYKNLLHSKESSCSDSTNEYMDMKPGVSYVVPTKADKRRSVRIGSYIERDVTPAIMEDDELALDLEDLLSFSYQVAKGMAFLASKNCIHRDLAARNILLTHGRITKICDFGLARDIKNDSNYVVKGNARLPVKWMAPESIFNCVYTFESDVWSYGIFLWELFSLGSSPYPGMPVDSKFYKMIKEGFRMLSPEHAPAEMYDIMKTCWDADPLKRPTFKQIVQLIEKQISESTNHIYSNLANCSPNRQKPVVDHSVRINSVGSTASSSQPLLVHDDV
# T15 sequence (P06239 whole entry, species assumed): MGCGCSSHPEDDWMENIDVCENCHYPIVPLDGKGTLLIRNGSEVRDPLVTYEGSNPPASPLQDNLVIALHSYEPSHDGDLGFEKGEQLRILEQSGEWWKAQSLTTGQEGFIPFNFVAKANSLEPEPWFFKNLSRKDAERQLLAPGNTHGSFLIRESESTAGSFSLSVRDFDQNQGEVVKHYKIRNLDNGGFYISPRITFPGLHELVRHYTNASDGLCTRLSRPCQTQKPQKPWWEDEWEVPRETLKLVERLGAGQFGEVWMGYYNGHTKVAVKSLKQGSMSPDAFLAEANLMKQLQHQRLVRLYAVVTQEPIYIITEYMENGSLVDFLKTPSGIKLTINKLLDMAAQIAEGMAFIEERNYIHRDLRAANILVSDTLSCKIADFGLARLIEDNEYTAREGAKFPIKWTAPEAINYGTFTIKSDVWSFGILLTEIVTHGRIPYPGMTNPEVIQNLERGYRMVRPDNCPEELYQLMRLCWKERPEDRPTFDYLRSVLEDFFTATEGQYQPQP
compound,measurement,setting,value
"COc1cc(OC)c(Cl)c(NC(=O)c2csc3c(Nc4ccc(N5CCC(N6CCCC6)CC5)cc4)ncnc23)c1Cl [Example 202, N-(2,6-dichloro-3,5-dimethoxyphenyl)-4-(4-(4-(pyrrolidin-1-yl)piperidin-1-yl)phenylamino) thieno[3,2-d]pyrimidine-7-carboxamide]",pIC50,FGFR3,7.00 to 9.00
same,pIC50,FGFR1,6.30 to 7.00
"COc1cc(OC)c(Cl)c(NC(=O)c2csc3c(NCCNc4ccccc4)ncnc23)c1Cl [Example 304, N-(2,6-dichloro-3,5-dimethoxyphenyl)-4-(2-(phenylamino)ethyl-amino)thieno[3,2-d]pyrimidine-7-carboxamide]",pIC50,FGFR3,5.30 to 6.00
same,pIC50,FGFR1,5.30 to 6.00
"COc1cc(O)c(Cl)c(NC(=O)c2csc3c(N)ncnc23)c1Cl [Example 217, 4-Amino-N-(2,6-dichloro-3-hydroxy-5-methoxyphenyl)thieno[3,2-d]pyrimidine-7-carboxamide]",pIC50,FGFR3,6.30 to 7.00
same,pIC50,FGFR1,7.00 to 9.00
"COc1cc(OC)c(Cl)c(NC(=O)c2csc3c(NC(=O)C4CC4)ncnc23)c1Cl [Example 177, 4-(cyclopropanecarbox-amido)-N-(2,6-dichloro-3,5-dimethoxyphenyl) thieno[3,2-d]pyrimidine-7-carboxamide]",IC50,PDGFRβ,> 1000 nM
same,IC50,Kit,> 1000 nM
same,IC50,Ret,> 1000 nM
same,IC50,Met,> 1000 nM
same,IC50,"FGFR3; Table 3, read-out: IC50 (nM) FGFR3",< 100 nM
same,IC50,PDGFRα,> 1000 nM
same,IC50,KDR,< 200 nM
same,IC50,Flt1,> 1000 nM
same,IC50,EGFR,> 1000 nM
same,IC50,Flt3,> 1000 nM
same,IC50,Tie2,> 1000 nM
same,IC50,Src,> 1000 nM
same,IC50,Fms,< 200 nM
same,IC50,"FGFR1; Table 3, read-out: IC50 (nM) FGFR1",< 100 nM
same,IC50,Lck,> 1000 nM
same,IC50,Her2,> 1000 nM
same,IC50,Lyn,> 1000 nM
same,IC50,Fyn,> 1000 nM
